In patent EP0210284B1, “1,3-Dithiol-2-ylidene derivatives” (priority 1985, dated 1987):
Like-named read-outs stand apart in the source and are kept apart here.

Assays:
[1] = system: Acute Liver Injury Induced by Carbon Tetrachloride; experiment: Protective effect on acute liver injury induced by carbon tetrachloride; format: in vivo, mice (ddY mice); details: for Liver Damage Index: 50mg/kg orally in olive oil 6 hours before carbon tetrachloride (0.05ml/kg orally), visual score 0: normal, 2: slightly, 4: distinctly, 6: remarkably injured, n=5, CCl4 alone 6.0; for inhibition in vivo at 50 mg/kg: Mus musculus, po, 50mg/kg orally 6 hours before carbon tetrachloride (0.05ml/kg orally), CCl4 alone 0, Normal 100
Experimental: A test compound was dissolved or suspended in olive oil and administered orally at a dose of 50mg/kg to mice (ddY mice, ? , 23 ± 2g, n=5). After 6 hours, carbon tetrachloride (0.05ml/kg) was administered orally. 24 Hours after the administration of carbon tetrachloride, BSP (sodium sulfobromophthalene; 75mg/kg) was administered intravenously. Thirty minutes later, the cardiac blood was collected, and GPT (glutamic-pyruvic transaminase) activity and the retention rate of BSP in the plasma were measured. Further, the liver injury immediately after the collection of the blood was visually observed and evaluated by the following score for liver damage index. 0: normal 2: Slightly injured 4: distinctly injured 6: remarkably injured

[2] = system: Acute Liver Injury Induced by D-Galactosamine; experiment: Protective effect on acute liver injury induced by D-galactosamine; format: in vivo, rats (SD strain); details: 50mg/kg orally twice daily for 6 days, D-galactosamine 200mg/kg x 3 i.p.; for Glucose / P-GPT: plasma 48 hours after first injection; for Glucose: D-Galactosamine alone 32±4, Normal 142±4; for P-GPT: D-Galactosamine alone 4825±590, Normal 29±2; for ALP: alkaline phosphatase in plasma, D-Galactosamine alone 176±6, Normal 500±63
Experimental: A test compound was dissolved or suspended in olive oil and orally administered twice daily for 6 days at a dose of 50mg/kg to rats (SD strain, ? , 225 ±15g, 7 weeks-old, n=5). On the 6th day, D-galactosamine (200mg/kg x 3) was intraperitoneally administered three times at 3-hour intervals. 48 Hours after the first injection of D-galactosamine, the animals were sacrificed by exsanguination from the abdominal aorta. The protective effect was evaluated by examining the biochemical parameters (p-GPT, glucose, alkaline phosphatase) in plasma.

[3] = system: Fatty Liver Induced by Carbon Tetrachloride; experiment: Therapeutic effect on fatty liver induced by carbon tetrachloride; format: in vivo, rats (SD strain); set-up: Apoprotein: unit not given here
Experimental: Carbon tetrachloride (1ml/kg) was subcutaneously administered to rats (SD strain, ? , 38 week-old, n=5) for 4 days. Upon expiration of 3 days from the administration of carbon tetrachloride, Compound 6 was orally given successively for 7 days at the dose of 50mg/kg. On the 8th day, the animals were sacrificed by exsanguination. The therapeutic effect was evaluated by examining the content of triglyceride in the liver and the concentration of apoprotein B in the plasma. […]

mice (ddY mice) = experiment: Acute toxicity test; format: in vivo; details: oral in olive oil, mortality one week after the administration, n=5
Experimental: A test compound was dissolved or suspended in olive oil and administered orally to mice (ddY mice, ? , 23±2g, n=5). The acute toxicity value (LD₅₀) was determined from the mortality one week after the administration.

[4] = system: Protein Synthesis in Liver; experiment: Effect on protein synthesis in liver; format: in vivo, rats (Wister strain); details: 100mg/kg orally for 3 days
Experimental: Compound 6 was dissolved in olive oil and orally administered successively for 3 days at a dose of 100mg/kg to rats (Wister strain, ? , 180±10g, 6 week-old, n=5). 24 Hours after the administration of the test compound was completed, the animals were sacrificed. The effect on the protein synthesis in the liver was evaluated by determining the liver weight and protein content.

[5] = 24.5 h, retention rate of BSP in plasma 30 minutes after BSP 75mg/kg i.v., read-out: % Prophylaxis BSP
[6] = plasma GPT about 24.5 hours after CCl4, read-out: % Prophylaxis p-GPT

`CC(=O)C(C(=O)c1nc2ccccc2[nH]1)=C1SC=CS1` [Compound 47, 2-(1,3-dithiol-2-ylidene)-1-(2-benzimidazolyl)-1,3-butanedione] was tested, and the “Liver Damage Index” value [1] was 2.4, the inhibition in vivo at 50 mg/kg [1, 5] was 103% and the inhibition in vivo at 50 mg/kg [1, 6] was 91%. It also gave a Glucose [2] of 55 ± 2 mg/dL, a P-GPT [2] of 2938±694 U/l and an ALP [2] of 287±25 U/l.

In the case of `CC(=O)C(C(=O)c1ccccc1)=C1SC=CS1` [Compound 6, 2-(1,3-dithiol-2-ylidene)-1-phenyl-1,3-butanedione], the “effect for curing the fatty liver” value ([3]; 50mg/kg orally for 7 days, rats with CCl4-induced fatty liver, statement in words) is reported as “significant effect for curing the fatty liver”, the Apoprotein ([3]; apoprotein B in plasma, carbon tetrachloride 1ml/kg s.c. for 4 days, compound 50mg/kg orally for 7 days, CCl4 alone 66± 2, Normal 125± 8) is reported as 112± 23 and the Triglyceride ([3]; carbon tetrachloride 1ml/kg s.c. for 4 days, compound 50mg/kg orally for 7 days, liver content on the 8th day, CCl4 alone 99± 6, Normal 33± 5) is reported as 33± 7 mg/g-liver. The “Liver Damage Index” value [1] was 0.4, the inhibition in vivo at 50 mg/kg [1, 5] was 103% and the inhibition in vivo at 50 mg/kg [1, 6] was 100%. It also gave a Glucose [2] of 81 ± 9 mg/dL, a P-GPT [2] of 908±248 U/l and an ALP [2] of 398±45 U/l. For the same compound, the “acute toxicity value (LD50)” value (mice (ddY mice)) was “at least 2 g”, the “Liver Weight” value ([4]; 24 hours after last administration, Control 6.3±0.1) was 8.6±0.3 g/100g b.w and the “Liver Protein” value ([4]; 24 hours after last administration, Control 883±79) was 1247±62 mg/100g b.w. The “effect for stimulating the protein metabolic function of the liver” value ([4]; statement in words) was “substantial effect for stimulating the protein metabolic function of the liver”.
